# Values joined by “and” are separate entries in the source; they are usually repeats but may differ in a detail not shown here. Equal values may be shown once. Read-outs that look alike come from different tables or passages of the source.
# Columns and labels:
# ITK (IL2 mRNA) = experiment: SAD ex vivo PD: αCD3/αCD28 stimulated IL2 mRNA production; type: in vivo; settings: Homo sapiens
# From the text: (§1) Secondary Endpoints—Compound I plasma concentrations. Mean change from baseline in ex vivo stimulated pSTAT5 and pSTAT1 (signal transducer and activator of transcription); and in ex vivo stimulated IFNγ mRNA (interferon gamma messenger ribonucleic acid).
# (§2) Summary of SAD data: FIGS. 4-8 and 9-13 show the SAD dose response, SAD exposure response, and SAD calculated response at Cmax by dose respectively for ITK (IL2 mRNA), ITK (IFNγ mRNA), JAK3 (pSTAT5, lymph), JAK3 (pSTAT5, CD3′ T), and ITK & JAK (IFNγ protein). Clinical and pre-clinical IC50 data for ITK (IL2 mRNA), ITK (IFNγ mRNA), JAK3 (pSTAT5, lymph), JAK3 (pSTAT5, CD3^+ T), and ITK & JAK (IFNγ protein) from the SAD study is shown in table 4.
# JAK3 (pSTAT5, CD3+ T) = experiment: SAD ex vivo PD: IL2 stimulated pSTAT5 in CD3+ T cells; settings: Homo sapiens, T-cell; SAD study; read-out: Clinical EC50
# From the text: as §1, §2
# ITK & JAK (IFNγ protein) = experiment: SAD ex vivo PD: αCD3/IL15 stimulated IFNγ protein production; type: in vivo, human; settings: for EC50: Homo sapiens; for Inhibition of dual ITK and JAK3-stimulated IFNγ protein production: SAD higher dose cohorts
# From the text: as §2
# [1] = Phase 1 MAD study: safety and tolerability; type: in vivo, human; settings: for AE of Special Interest (events) / AEs (events) / ≥Grade 2 (events): 14 days
# From the text: Primary Endpoints—Number and percent of adverse events (AEs) and serious adverse events (SAEs); mean change from baseline in laboratory values, vital signs, and electrocardiograms (ECGs).
# Overall Design—This was a randomized, Investigator and participant-blind. Sponsor-unblinded, placebo-controlled study designed to evaluate the safety, tolerability, PK, and PD of Compound I in healthy participants. The study consisted of multiple cohorts assessing ascending doses of Compound I.
# Approximately 60 participants were enrolled into 5 cohorts. At each dose level/cohort, a total of 10 participants were randomized to receive 2 weeks of oral doses of Compound I (n=8) or placebo (n=2). In Cohort 3, 20 participants were randomized to receive multiple oral doses of Compound I QD (n=8), Compound I TID (n=8), placebo QD (n=2), or placebo TID (n=2).
# The study started with a planned dose of 5 mg twice daily (BID). Escalation to the next higher cohort was dependent on safety and PK data from all participants in the previous cohorts and was based on data from at least 6 participants up to at least 48 hours after the last dose. In no instance did the dose escalation steps exceed 3-fold the prior dose level.
# experimental colitis = experiment: Mouse colitis model vs ritlecitinib and tofacitinib, histological damage; type: in vivo; settings: proximal/distal colon and ileum
# Procedure: […] experimental colitis data-Histological damage was evaluated for the proximal/distal colon and ileum. Representative data shown here is from the distal colon-across all three regions of GI tissues analyzed.
# [2] = SAD study, read-out: Clinical EC50
compound,measurement,setting,value
"C=CC(=O)N1C[C@H](Nc2ncnc3[nH]cc([C@H]4CC4(F)F)c23)CC[C@@H]1C [Compound I, 1-((2S,5R)-5-((5-((R)-2,2-difluorocyclopropyl)-7H-pyrrolo[2,3-d]pyrimidin-4-yl)amino)-2-methylpiperidin-1-yl)prop-2-en-1-one]",EC50,ITK (IL2 mRNA); [2],0.0152 µM
same,EC50,ITK (IL2 mRNA); read-out: SAD EC50,0.0055 µg/mL and 15.2 nM
same,EC50,"JAK3 (pSTAT5, CD3+ T)",0.11 µM
same,EC50,ITK & JAK (IFNγ protein); [2],0.0073 µM
same,EC50,ITK & JAK (IFNγ protein); read-out: SAD EC50,0.0026 µg/mL and 7.3 nM
same,Inhibition of dual ITK and JAK3-stimulated IFNγ protein production,ITK & JAK (IFNγ protein),Near complete inhibition
same,Inhibition of dual ITK and JAK3-stimulated IFNγ protein production,ITK & JAK (IFNγ protein); maintained for 12 hours,> 50%
same,"Deaths, serious AEs, discontinuations due to AEs",[1]; MAD,"no deaths, serious AEs, or discontinuations due to AEs"
same,Safety and tolerability conclusion,[1]; MAD,safe and well tolerated
same,Notable events: single episode of transient diarrhea,[1]; MAD 5 mg BID,2 subjects
same,Notable events: single dermatomal zoster rash 1 week after dosing ended,[1]; MAD 40 mg BID,1 subject
same,AE of Special Interest (events),[1]; MAD cohort 5 mg BID,3
same,AEs (events),[1]; MAD cohort 5 mg BID,9
same,≥Grade 2 (events),[1]; MAD cohort 5 mg BID,1
same,AE of Special Interest (events),[1]; MAD cohort 10 mg TID,0
same,AEs (events),[1]; MAD cohort 10 mg TID,3
same,≥Grade 2 (events),[1]; MAD cohort 10 mg TID,0
same,AE of Special Interest (events),[1]; MAD cohort 15 mg BID,0
same,AEs (events),[1]; MAD cohort 15 mg BID,0
same,≥Grade 2 (events),[1]; MAD cohort 15 mg BID,0
same,AE of Special Interest (events),[1]; MAD cohort 25 mg BID,1
same,AEs (events),[1]; MAD cohort 25 mg BID,4
same,≥Grade 2 (events),[1]; MAD cohort 25 mg BID,0
same,AE of Special Interest (events),[1]; MAD cohort 30 mg QD,0
same,AEs (events),[1]; MAD cohort 30 mg QD,3
same,≥Grade 2 (events),[1]; MAD cohort 30 mg QD,0
same,AE of Special Interest (events),[1]; MAD cohort 40 mg BID,1
same,AEs (events),[1]; MAD cohort 40 mg BID,4
same,≥Grade 2 (events),[1]; MAD cohort 40 mg BID,1
same,Safety and tolerability,"[1]; MAD, up to 2 weeks administration in HV",safe and tolerable
same,Protection from histological damage vs comparator drugs,experimental colitis,more protective than both comparator drugs
